How the values were obtained:
Details in all cases: Compound concentration 1.0 uM
[1] = molecular target: Phosphatidylinositol 4-phosphate 5-kinase type-1 gamma (Homo sapiens) (UniProt O60331); assay: activity of PIP5K1gamma(h) at 1.0 µM in the Eurofins Kinase panel
[2] = molecular target: Casein kinase I isoform delta (Homo sapiens) (UniProt P48730); assay: activity of CK1delta(h) at 1.0 µM in the Eurofins Kinase panel
[3] = molecular target: Calcium/calmodulin-dependent protein kinase kinase 1 (Homo sapiens) (UniProt Q8N5S9); assay: activity of CaMKK1(h) at 1.0 µM in the Eurofins Kinase panel
[4] = molecular target: Mitogen-activated protein kinase kinase kinase kinase 4 (Homo sapiens) (UniProt O95819); assay: activity of MAP4K4(h) at 1.0 µM in the Eurofins Kinase panel
[5] = molecular target: Eukaryotic elongation factor 2 kinase (Homo sapiens) (UniProt O00418); assay: activity of eEF-2K(h) at 1.0 µM in the Eurofins Kinase panel
[6] = molecular target: MAP kinase-activated protein kinase 2 (Homo sapiens) (UniProt P49137); assay: activity of MAPKAP-K2(h) at 1.0 µM in the Eurofins Kinase panel
[7] = molecular target: BDNF/NT-3 growth factors receptor (Homo sapiens) (UniProt Q16620); assay: activity of TrkB(h) at 1.0 µM in the Eurofins Kinase panel
[8] = molecular target: Calcium/calmodulin-dependent protein kinase type II subunit alpha (Homo sapiens) (UniProt Q9UQM7); assay: activity of CaMKIIalpha(h) at 1.0 µM in the Eurofins Kinase panel
[9] = molecular target: Calcium/calmodulin-dependent protein kinase type IV (Homo sapiens) (UniProt Q16566); assay: activity of CaMKIV(h) at 1.0 µM in the Eurofins Kinase panel
ATR/ATRIP (Homo sapiens) = ATR/ATRIP (Homo sapiens) (UniProt Q13535+Q8WXE1); assay: activity of ATR/ATRIP(h) at 1.0 µM in the Eurofins Kinase panel; format: protein-complex assay
[10] = molecular target: Mitogen-activated protein kinase kinase kinase kinase 1 (Homo sapiens) (UniProt Q92918); assay: activity of HPK1(h) at 1.0 µM in the Eurofins Kinase panel
[11] = molecular target: Serine/threonine-protein kinase PLK1 (Homo sapiens) (UniProt P53350); assay: activity of Plk1(h) at 1.0 µM in the Eurofins Kinase panel
[12] = molecular target: Mitogen-activated protein kinase 13 (Homo sapiens) (UniProt O15264); assay: activity of SAPK4(h) at 1.0 µM in the Eurofins Kinase panel
[13] = molecular target: Dual specificity mitogen-activated protein kinase kinase 3 (Homo sapiens) (UniProt P46734); assay: activity of MKK3(h) at 1.0 µM in the Eurofins Kinase panel
[14] = molecular target: CDK9/cyclin T1 (Homo sapiens) (UniProt O60563+P50750); assay: activity of CDK9/cyclin T1(h) at 1.0 µM in the Eurofins Kinase panel; format: protein-complex assay
[15] = molecular target: Ribosomal protein S6 kinase alpha-3 (Homo sapiens) (UniProt P51812); assay: activity of Rsk2(h) at 1.0 µM in the Eurofins Kinase panel
[16] = molecular target: Protein kinase C iota type (Homo sapiens) (UniProt P41743); assay: activity of PKCiota(h) at 1.0 µM in the Eurofins Kinase panel
[17] = molecular target: Ribosomal protein S6 kinase alpha-5 (Homo sapiens) (UniProt O75582); assay: activity of MSK1(h) at 1.0 µM in the Eurofins Kinase panel
[18] = molecular target: RAC-gamma serine/threonine-protein kinase (Homo sapiens) (UniProt Q9Y243); assay: activity of PKBgamma(h) at 1.0 µM in the Eurofins Kinase panel
[19] = molecular target: Serine/threonine-protein kinase Nek1 (Homo sapiens) (UniProt Q96PY6); assay: activity of NEK1(h) at 1.0 µM in the Eurofins Kinase panel
[20] = molecular target: Serine/threonine-protein kinase LATS1 (Homo sapiens) (UniProt O95835); assay: activity of LATS1(h) at 1.0 µM in the Eurofins Kinase panel
[21] = molecular target: Mitogen-activated protein kinase kinase kinase kinase 3 (Homo sapiens) (UniProt Q8IVH8); assay: activity of MAP4K3(h) at 1.0 µM in the Eurofins Kinase panel
[22] = molecular target: Serine/threonine-protein kinase D2 (Homo sapiens) (UniProt Q9BZL6); assay: activity of PKD2(h) at 1.0 µM in the Eurofins Kinase panel
[23] = molecular target: Tyrosine-protein kinase JAK3 (Homo sapiens) (UniProt P52333); assay: activity of JAK3(h) at 1.0 µM in the Eurofins Kinase panel
[24] = molecular target: Casein kinase II subunit alpha' (Homo sapiens) (UniProt P19784); assay: activity of CK2alpha2(h) at 1.0 µM in the Eurofins Kinase panel
[25] = molecular target: Calcium/calmodulin-dependent protein kinase type II subunit delta (Homo sapiens) (UniProt Q13557); assay: activity of CaMKIIdelta(h) at 1.0 µM in the Eurofins Kinase panel
[26] = molecular target: Protein kinase C gamma type (Homo sapiens) (UniProt P05129); assay: activity of PKCgamma(h) at 1.0 µM in the Eurofins Kinase panel
[27] = molecular target: mTOR/FKBP12A/FKBP12B (Homo sapiens) (UniProt P62942+P68106+P42345); assay: activity of mTOR/FKBP12(h) at 1.0 µM in the Eurofins Kinase panel; format: protein-complex assay
[28] = molecular target: Tyrosine-protein kinase Lck (Homo sapiens) (UniProt P06239); assay: activity of Lck(h) activated at 1.0 µM in the Eurofins Kinase panel
[29] = molecular target: Dual specificity tyrosine-phosphorylation-regulated kinase 2 (Homo sapiens) (UniProt Q92630); assay: activity of DYRK2(h) at 1.0 µM in the Eurofins Kinase panel
[30] = molecular target: Tyrosine-protein kinase FRK (Homo sapiens) (UniProt P42685); assay: activity of PTK5(h) at 1.0 µM in the Eurofins Kinase panel
[31] = molecular target: Homeodomain-interacting protein kinase 3 (Homo sapiens) (UniProt Q9H422); assay: activity of HIPK3(h) at 1.0 µM in the Eurofins Kinase panel
[32] = molecular target: Activin receptor type-1 (Homo sapiens) (UniProt Q04771); assay: activity of ALK2(h) at 1.0 µM in the Eurofins Kinase panel
[33] = molecular target: Interleukin-1 receptor-associated kinase 4 (Homo sapiens) (UniProt Q9NWZ3); assay: activity of IRAK4(h) at 1.0 µM in the Eurofins Kinase panel
[34] = molecular target: Mitogen-activated protein kinase kinase kinase kinase 2 (Homo sapiens) (UniProt Q12851); assay: activity of GCK(h) at 1.0 µM in the Eurofins Kinase panel
[35] = molecular target: Serine/threonine-protein kinase 35 (Homo sapiens) (UniProt Q8TDR2); assay: activity of CLIK1(h) at 1.0 µM in the Eurofins Kinase panel
[36] = molecular target: G protein-coupled receptor kinase 5 (Homo sapiens) (UniProt P34947); assay: activity of GRK5(h) at 1.0 µM in the Eurofins Kinase panel
[37] = molecular target: Protein kinase C zeta type (Homo sapiens) (UniProt Q05513); assay: activity of PKCzeta(h) at 1.0 µM in the Eurofins Kinase panel

Chain of Calcium/calmodulin-dependent protein kinase type IV (Homo sapiens) (Q16566 whole entry): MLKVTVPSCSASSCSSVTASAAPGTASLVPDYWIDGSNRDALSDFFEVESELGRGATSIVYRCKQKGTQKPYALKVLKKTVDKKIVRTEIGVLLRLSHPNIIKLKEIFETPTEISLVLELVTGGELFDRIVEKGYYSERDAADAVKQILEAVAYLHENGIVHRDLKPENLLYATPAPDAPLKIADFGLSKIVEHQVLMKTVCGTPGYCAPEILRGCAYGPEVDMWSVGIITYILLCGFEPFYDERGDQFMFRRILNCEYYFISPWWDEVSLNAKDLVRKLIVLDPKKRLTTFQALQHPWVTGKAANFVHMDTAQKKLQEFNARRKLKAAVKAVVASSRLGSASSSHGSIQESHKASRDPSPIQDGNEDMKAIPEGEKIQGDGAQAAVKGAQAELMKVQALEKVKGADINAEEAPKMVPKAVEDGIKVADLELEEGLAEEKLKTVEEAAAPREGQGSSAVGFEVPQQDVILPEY
Chain of Tyrosine-protein kinase Lck (Homo sapiens) (P06239 2-509 limits assumed): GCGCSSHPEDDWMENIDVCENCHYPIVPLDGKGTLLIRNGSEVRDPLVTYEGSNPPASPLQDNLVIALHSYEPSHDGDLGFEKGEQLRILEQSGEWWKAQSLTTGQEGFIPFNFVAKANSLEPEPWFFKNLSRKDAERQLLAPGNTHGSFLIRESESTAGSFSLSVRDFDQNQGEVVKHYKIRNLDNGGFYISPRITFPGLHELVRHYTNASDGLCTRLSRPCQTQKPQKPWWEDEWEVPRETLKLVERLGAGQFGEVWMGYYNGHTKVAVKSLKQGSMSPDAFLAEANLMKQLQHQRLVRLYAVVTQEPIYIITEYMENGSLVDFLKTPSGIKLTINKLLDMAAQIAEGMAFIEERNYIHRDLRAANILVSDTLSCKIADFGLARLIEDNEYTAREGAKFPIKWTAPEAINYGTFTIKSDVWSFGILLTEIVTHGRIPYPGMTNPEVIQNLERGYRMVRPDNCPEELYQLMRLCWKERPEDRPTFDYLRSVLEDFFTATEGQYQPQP
Chain of Tyrosine-protein kinase JAK3 (Homo sapiens) (P52333 whole entry): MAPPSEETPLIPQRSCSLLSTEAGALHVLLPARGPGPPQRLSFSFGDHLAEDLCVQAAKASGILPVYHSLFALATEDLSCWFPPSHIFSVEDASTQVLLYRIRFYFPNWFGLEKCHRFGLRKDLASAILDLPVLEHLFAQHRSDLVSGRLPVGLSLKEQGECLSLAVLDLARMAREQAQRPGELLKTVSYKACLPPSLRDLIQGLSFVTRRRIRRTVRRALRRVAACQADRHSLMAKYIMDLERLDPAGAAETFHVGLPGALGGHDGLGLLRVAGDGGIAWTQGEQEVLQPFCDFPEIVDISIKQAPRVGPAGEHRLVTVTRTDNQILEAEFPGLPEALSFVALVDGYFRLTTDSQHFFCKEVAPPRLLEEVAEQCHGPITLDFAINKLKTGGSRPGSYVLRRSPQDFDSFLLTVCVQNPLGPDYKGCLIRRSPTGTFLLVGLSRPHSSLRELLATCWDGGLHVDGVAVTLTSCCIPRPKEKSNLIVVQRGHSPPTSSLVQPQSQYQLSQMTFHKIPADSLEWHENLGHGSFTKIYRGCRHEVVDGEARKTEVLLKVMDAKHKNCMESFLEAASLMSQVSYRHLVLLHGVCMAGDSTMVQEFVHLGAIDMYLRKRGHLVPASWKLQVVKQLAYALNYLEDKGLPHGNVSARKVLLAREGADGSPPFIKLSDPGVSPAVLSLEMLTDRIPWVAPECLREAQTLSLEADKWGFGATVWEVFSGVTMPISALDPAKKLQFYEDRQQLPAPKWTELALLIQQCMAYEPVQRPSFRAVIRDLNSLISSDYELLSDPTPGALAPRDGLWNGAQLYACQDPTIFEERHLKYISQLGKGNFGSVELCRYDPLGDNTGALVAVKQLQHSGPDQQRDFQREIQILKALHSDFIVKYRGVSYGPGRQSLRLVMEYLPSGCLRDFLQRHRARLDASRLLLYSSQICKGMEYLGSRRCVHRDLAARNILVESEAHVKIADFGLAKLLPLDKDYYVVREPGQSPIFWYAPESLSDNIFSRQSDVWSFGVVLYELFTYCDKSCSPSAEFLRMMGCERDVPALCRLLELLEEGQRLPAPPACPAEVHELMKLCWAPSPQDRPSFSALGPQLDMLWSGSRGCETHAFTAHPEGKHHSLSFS
Chain of BDNF/NT-3 growth factors receptor (Homo sapiens) (Q16620 32-822 limits assumed): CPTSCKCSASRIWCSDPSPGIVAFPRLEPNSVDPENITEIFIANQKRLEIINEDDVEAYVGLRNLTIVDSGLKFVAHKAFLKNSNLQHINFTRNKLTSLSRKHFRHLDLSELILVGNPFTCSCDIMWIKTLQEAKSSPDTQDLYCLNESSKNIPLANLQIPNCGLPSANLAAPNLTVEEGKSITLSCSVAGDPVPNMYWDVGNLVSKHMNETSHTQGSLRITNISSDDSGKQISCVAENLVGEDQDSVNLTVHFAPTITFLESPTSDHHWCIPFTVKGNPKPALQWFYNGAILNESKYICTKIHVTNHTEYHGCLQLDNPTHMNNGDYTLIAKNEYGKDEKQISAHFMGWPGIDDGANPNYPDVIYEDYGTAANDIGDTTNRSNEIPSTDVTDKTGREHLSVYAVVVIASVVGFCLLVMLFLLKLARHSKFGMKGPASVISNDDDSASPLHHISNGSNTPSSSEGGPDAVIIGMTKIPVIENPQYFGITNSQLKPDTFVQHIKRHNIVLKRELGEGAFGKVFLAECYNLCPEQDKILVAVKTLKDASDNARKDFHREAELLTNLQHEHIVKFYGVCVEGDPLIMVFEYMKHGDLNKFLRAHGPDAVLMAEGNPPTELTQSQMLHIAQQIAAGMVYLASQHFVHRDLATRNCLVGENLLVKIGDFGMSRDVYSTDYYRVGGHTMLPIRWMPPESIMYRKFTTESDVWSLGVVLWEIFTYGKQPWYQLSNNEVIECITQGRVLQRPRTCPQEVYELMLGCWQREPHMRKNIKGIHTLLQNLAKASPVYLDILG
Chain of Mitogen-activated protein kinase 13 (Homo sapiens) (O15264 whole entry): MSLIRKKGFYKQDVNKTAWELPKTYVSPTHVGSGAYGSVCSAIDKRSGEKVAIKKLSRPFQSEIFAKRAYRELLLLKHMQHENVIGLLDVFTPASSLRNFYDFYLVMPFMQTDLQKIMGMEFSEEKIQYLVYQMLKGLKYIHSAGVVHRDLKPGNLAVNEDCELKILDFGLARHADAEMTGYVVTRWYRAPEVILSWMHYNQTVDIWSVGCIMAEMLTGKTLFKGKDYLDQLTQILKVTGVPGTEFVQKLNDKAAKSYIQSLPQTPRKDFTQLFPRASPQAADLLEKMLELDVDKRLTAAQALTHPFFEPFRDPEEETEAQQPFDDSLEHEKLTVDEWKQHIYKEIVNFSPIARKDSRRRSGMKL
Chain of mTOR/FKBP12A/FKBP12B (Homo sapiens) (P62942 2-108 limits assumed, other chains not shown): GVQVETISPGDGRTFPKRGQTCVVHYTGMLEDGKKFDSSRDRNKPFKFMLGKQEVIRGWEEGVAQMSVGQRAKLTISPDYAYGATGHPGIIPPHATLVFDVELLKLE
Chain of mTOR/FKBP12A/FKBP12B (Homo sapiens) (P68106 whole entry partner, other chains not shown): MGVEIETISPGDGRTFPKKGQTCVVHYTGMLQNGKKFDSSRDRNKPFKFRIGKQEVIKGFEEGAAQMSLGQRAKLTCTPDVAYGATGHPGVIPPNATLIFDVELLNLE
Chain of Homeodomain-interacting protein kinase 3 (Homo sapiens) (Q9H422 whole entry, looked up): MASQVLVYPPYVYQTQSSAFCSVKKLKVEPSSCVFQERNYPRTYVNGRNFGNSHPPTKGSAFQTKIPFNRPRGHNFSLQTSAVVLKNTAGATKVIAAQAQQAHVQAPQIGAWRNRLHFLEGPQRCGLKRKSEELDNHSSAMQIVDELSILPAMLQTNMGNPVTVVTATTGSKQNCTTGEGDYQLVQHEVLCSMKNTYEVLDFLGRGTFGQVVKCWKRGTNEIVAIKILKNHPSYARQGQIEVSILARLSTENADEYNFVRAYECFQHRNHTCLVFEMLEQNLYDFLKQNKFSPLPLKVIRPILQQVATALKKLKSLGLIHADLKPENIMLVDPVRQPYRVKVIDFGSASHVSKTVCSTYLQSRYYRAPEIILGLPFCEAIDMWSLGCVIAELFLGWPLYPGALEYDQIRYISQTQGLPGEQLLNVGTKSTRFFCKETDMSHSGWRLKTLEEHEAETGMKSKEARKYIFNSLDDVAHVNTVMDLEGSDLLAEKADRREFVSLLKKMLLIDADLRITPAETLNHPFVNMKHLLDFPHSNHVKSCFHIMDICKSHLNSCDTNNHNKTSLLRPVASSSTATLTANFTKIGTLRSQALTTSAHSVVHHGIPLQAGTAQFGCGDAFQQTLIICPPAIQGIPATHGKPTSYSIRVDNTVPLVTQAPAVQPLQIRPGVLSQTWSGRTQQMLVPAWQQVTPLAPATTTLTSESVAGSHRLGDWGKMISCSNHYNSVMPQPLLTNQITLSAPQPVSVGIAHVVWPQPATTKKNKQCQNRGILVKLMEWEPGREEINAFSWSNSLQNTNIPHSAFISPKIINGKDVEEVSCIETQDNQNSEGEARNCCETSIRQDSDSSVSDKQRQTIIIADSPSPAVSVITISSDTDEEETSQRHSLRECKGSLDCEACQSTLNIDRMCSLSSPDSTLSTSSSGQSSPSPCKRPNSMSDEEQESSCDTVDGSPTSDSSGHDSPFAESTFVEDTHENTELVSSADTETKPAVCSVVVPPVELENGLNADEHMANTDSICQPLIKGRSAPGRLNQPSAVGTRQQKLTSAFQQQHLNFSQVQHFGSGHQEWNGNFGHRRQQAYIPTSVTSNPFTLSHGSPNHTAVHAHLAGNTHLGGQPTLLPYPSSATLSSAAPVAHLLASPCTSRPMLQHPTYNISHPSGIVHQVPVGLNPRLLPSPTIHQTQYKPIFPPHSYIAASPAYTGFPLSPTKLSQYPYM

- activity [1]: 102%
- activity [2]: 96%
- activity [3]: 89%
- activity [4]: 101%
- activity [5]: 92%
- activity [6]: 72%
- activity [7]: 84%
- activity [8]: 88%
- activity [9]: 99%
- activity (ATR/ATRIP (Homo sapiens)): 110%
- activity [10]: 73%
- activity [11]: 111%
- activity [12]: 94%
- activity [13]: 97%
- activity [14]: 81%
- activity [15]: 88%
- activity [16]: 110%
- activity [17]: 111%
- activity [18]: 101%
- activity [19]: 94%
- activity [20]: 90%
- activity [21]: 109%
- activity [22]: 95%
- activity [23]: 106%
- activity [24]: 115%
- activity [25]: 96%
- activity [26]: 97%
- activity [27]: 120%
- activity [28]: 119%
- activity [29]: 101%
- activity [30]: 90%
- activity [31]: 85%
- activity [32]: 122%
- activity [33]: 90%
- activity [34]: 118%
- activity [35]: 97%
- activity [36]: 97%
- activity [37]: 88%
SMILES: Cc1cc2c(-c3ccc(NC(=O)[C@H](N)CC(C)(C)C)cc3C)ccnc2[nH]1

Source: ChEMBL document CHEMBL5723584 (2023)
